Test results from patent US5843916A, “Cyclic amp analogues, individually and in pairs, to inhibit neoplastic cell growth” (priority 1994, dated 1998).
Entries after “also recorded” stand apart in the source; their conditions may differ. Like-named read-outs stand apart in the source and are kept apart here.

Columns and labels:
[1] = target: T1, RII, regulatory subunit of cAMP-dependent protein kinase type II (Bos taurus, UniProt P00515); experiment: Binding affinity for RII (Table 14)
T1 construct: from tissue
Description: (§1) RI and RII are the regulatory subunits of cAMP-dependent protein
(§2) kinase type I and type II, respectively. Site A (Site 2) and Site B
(§3) (RI and RII): the affinities of analogues for Site A and Site B were
(§4) determined by the measurement of kinetic constants (inhibition constant,
(§5) Ki), and the values are expressed as the relative affinity Ki
(§6) (analogue), i.e., the ratio between the apparent inhibition constant for
(§7) cAMP and the analogue, as described in Ogreid et al., Eur. J. Biochem.

[2] = target: T2, Protein kinase type I (cAKI) (Oryctolagus cuniculus, UniProt G1TDN4); experiment: Protein kinase activation (Table 15); assay type: biochemical, rabbit (skeletal muscle); conditions: half-maximum activation; U. M.: unmeasurable
T2 construct: prepared from rabbit skeletal muscle and bovine heart; from tissue; host or cells: rabbit skeletal muscle
Description: (§8) ATP to Kemptide as described by Ogreid et al., Eur. J. Biochem. 150: 219-227 (1985).
(§9) Protein kinases types I (cAKI) and II (cAKII) were
(§10) prepared from rabbit skeletal muscle and bovine heart,
(§11) respectively, as described in D.o slashed.skeland et al. (J. Biol.
(§12) of the protein kinase in Ogreid et al. (Eur. J. Biochem.

[3] = target: T3, Protein kinase type II (cAKII) (Bos taurus, UniProt P00515); experiment: Protein kinase activation (Table 15); assay type: biochemical, bovine (heart); conditions: half-maximum activation; U. M.: unmeasurable
T3 construct: prepared from rabbit skeletal muscle and bovine heart; from tissue; host or cells: bovine heart
Description: as §8, §9, §10, §11, §12

[4] = tested on: HL-60 Cells; experiment: Cell cycle kinetics of HL-60 cells (Table 17); assay type: cell-based, human; conditions: for % G2 M: control 8.3; for % G0-G1: control 45.7; for % S: control 46
Description: (§13) Briefly, cells were fixed in 70% ethanol and stored at 4° C. before analysis. Nuclear DNA was stained with propidium iodide, 50 μg/ml in phosphate-buffered saline (pH 7.4), for 30 minutes at room temperature. RNase was added to avoid double-helix RNA staining. The DNA content of cells was analyzed by a FACScan flow cytometer coupled with a Hewlett-Packard computer. Cell cycle data analysis was performed by a Cell-FIT program according to the method of Dean (Cell Tissue Kinet. 13: 299-308 (1980)) (Becton Dickinson Immunocytometry Systems). Pulse area versus pulse width gating was performed to exclude doublets from the G2 -M region. For each sample, 20,000 events were stored in list mode. Cell surface antigen analysis was performed by flow cytometry with FACScan using a panel of monoclonal antibodies reactive with either monocytic or myeloid cells.

[5] = tested on: HL-60 human leukemia cells; experiment: Growth inhibition of HL-60 leukemia cells (Example 3, Table 16); assay type: cell-based; conditions: for IC50: Homo sapiens; for fold less potent than 8-Cl-cAMP: growth inhibition HL-60, day 6
Description: HL-60 leukemic cells were obtained from the American Type Culture Collection (Rockville, Md.) and were grown in suspension culture in RPMI 1640 supplemented with 10% heat-inactivated fetal bovine serum, streptomycin (500 μg/ml), penicillin (50 units/ml), and glutamine (1 mM) (Gibco, Grand Island, N.Y.).
Cell counts were performed at desired times on a Coulter Counter.
The IC50 values were determined from the dose-
represent an average value obtained for each analogue
from two or more separate experiments carried out from 3
days or 6 days. Initial cell number, 1 × 10^5 /dish.
Typical numbers of untreated control cells at day 3 and
viability in treated and control cells.

[6] = tested on: cAMP-phosphodiesterase (PDE); conditions: no test described; cited from earlier work
[7] = tested on: HL-60 leukemia cells; experiment: Surface antigen expression of HL-60 cells (Example 5); assay type: cell-based, human; conditions: Homo sapiens, HL-60, 72 h
Description: as §13
The effect of Rp- and Sp-8-Cl-cAMPS on the expression of differentiation markers in HL-60 cells was examined to determine if the growth-arrested HL-60 cells are more differentiated than untreated cells. […] For each sample, 2×10^4 cells were analyzed. Cell surface antigen analysis was performed by flow cytometry with FACScan. Cell gating was performed using forward and side scatter.

[8] = tested on: LS-174T human colon carcinoma cells; experiment: Growth inhibition of LS-174T cells (Example 4, Table 18); assay type: cell-based
Description: LS-174T human colon carcinoma cells were obtained from the National Cancer Institute, Division of Cancer Treatment, Bethesda, Md., and were grown in Eagle's minimum essential medium supplemented with 10% heat-inactivated fetal bovine serum, Eagle's minimum essential medium nonessential amino acids, 20 mM 4-(2-hydroxyethyl)-1-piperazineethanesulfonic acid, 2mM glutamine, and penicillin-streptomycin (Gibco). The medium was changed every 48 hours.
LS-174T cells were seeded at a density of 2×10^5 / 60 mm dish. […] At desired times, cell counts were performed in duplicate on a Coulter Counter after harvesting cells with gentle trypsinization.
The percentage growth inhibition values shown at 10
and 50 μM analogue concentrations were determined from
the dose-response curve experiments like those shown in
FIG. 1 and represent an average value obtained for each
analogue from two or more separate experiments. Sp-6-SET-

[9] = tested on: LS-174T human colon carcinoma cells; experiment: Additive growth inhibition with 8-Cl-cAMP (Table 19); assay type: cell-based
Description: The medium was changed every 48 hours.
At desired times, cell counts were performed in duplicate on a Coulter Counter after harvesting cells with gentle trypsinization.
The analogues were added at 24

[10] = tested on: RI, regulatory subunit of cAMP-dependent protein kinase type I; experiment: Binding affinity for RI (Table 14); conditions: compared with 8-Cl-cAMP
Description: as §1, §2, §3, §4, §5, §6, §7

[11] = target: T4, RI, regulatory subunit of cAMP-dependent protein kinase type I (Oryctolagus cuniculus, UniProt G1TDN4); experiment: Binding affinity for RI (Table 14)
T4 construct: from tissue
Description: as §1, §2, §3, §4, §5, §6, §7

T1 sequence (P00515 whole entry): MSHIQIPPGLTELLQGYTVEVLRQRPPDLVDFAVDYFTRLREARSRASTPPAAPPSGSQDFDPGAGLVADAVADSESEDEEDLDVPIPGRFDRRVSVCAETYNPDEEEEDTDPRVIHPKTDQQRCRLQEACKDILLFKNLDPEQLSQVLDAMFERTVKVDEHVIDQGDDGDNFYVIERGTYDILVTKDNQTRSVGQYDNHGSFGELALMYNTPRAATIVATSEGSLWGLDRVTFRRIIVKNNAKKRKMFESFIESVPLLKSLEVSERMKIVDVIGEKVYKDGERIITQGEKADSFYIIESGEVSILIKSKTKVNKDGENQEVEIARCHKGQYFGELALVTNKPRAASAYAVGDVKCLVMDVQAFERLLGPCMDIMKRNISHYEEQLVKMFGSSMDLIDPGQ
T4 sequence (G1TDN4 1-381): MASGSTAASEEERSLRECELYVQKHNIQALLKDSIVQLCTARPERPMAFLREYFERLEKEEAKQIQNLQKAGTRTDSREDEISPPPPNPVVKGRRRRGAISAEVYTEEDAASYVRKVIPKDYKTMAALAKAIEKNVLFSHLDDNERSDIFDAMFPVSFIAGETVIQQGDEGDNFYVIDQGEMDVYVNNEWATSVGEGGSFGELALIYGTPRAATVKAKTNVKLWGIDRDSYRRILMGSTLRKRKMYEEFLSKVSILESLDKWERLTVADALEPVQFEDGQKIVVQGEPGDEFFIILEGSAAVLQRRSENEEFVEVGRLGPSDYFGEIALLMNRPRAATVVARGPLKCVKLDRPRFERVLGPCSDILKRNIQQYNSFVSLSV
T2 sequence (G1TDN4 1-381): as above
T3 sequence (P00515 2-401 limits assumed): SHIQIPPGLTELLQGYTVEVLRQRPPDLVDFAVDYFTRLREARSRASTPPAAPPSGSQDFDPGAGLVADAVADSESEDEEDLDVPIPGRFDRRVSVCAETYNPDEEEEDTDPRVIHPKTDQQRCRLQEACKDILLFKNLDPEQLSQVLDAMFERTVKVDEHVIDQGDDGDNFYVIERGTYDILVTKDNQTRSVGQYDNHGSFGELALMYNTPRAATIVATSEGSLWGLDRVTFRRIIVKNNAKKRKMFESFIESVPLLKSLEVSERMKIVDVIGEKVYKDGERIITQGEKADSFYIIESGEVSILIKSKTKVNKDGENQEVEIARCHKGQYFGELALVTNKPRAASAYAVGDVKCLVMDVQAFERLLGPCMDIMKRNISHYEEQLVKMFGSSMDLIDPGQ

SMILES: Nc1ncnc2c1nc(Cl)n2[C@@H]1O[C@@H]2CO[P@@](O)(=S)O[C@H]2[C@H]1O [Rp-8-Cl-cAMPS, Rp-(equatorial exocyclic sulfursubstitution) 8-chloro-adenosine 3': 5'-monophosphorothioate]
- relative affinity Ki (cAMP)/Ki (analogue), RII Site A ([1]; Site A (Site 2)): 0.00028
- relative affinity Ki (cAMP)/Ki (analogue), RII Site B ([1]; Site B (Site 1)): 0.44
- decrease in affinity for Site A of RII vs corresponding cyclophosphate ([1]; vs cyclophosphate): 180 fold
- decrease in affinity for Site B of RII vs corresponding cyclophosphate ([1]; vs cyclophosphate): 10 fold
- Activation Constant (Ka), cAKI [2]: U. M.
- Activation Constant (Ka), cAKII [3]: U. M.
- % G2 M ([4]; 10 μM, 96 hours): 9.8%
- % G0-G1 ([4]; 10 μM, 96 hours): 43.5%
- % S ([4]; 10 μM, 96 hours): 46.7%
- % G2 M ([4]; 50 μM, 96 hours): 9.0%
- % G0-G1 ([4]; 50 μM, 96 hours): 41.6%
- % S ([4]; 50 μM, 96 hours): 49.4%
- % G2 M ([4]; 100 μM, 96 hours): 10.9%
- % G0-G1 ([4]; 100 μM, 96 hours): 37.9%
- % S ([4]; 100 μM, 96 hours): 51.2%
- toxic effect ([4]; 100 μM, 96 hours, footnote b): Toxic effect
- cell cycle phase distribution ([4]; HL-60, 96 hours in Table 17): not appreciably different; also recorded: did not bring about any change in cell cycle phase
- growth inhibitory potency ([5]; HL-60): less inhibitory than 8-Cl-cAMP but was more potent than Sp-8-Cl-cAMPS
- IC50 ([5]; HL-60, 72 h, read-out: Growth inhibition (IC50), Day 3): 16 µM
- IC50 ([5]; HL-60, 144 h, read-out: Growth inhibition (IC50), Day 6): 3 µM
- fold less potent than 8-Cl-cAMP [5]: about 10 fold
- fold less potent than 8-Cl-cAMP ([5]; listed as Rp-phosphorothioate of 8-Cl-cAMP): 10 fold
- growth inhibitory effect greater than that of Sp-8-Cl-cAMPS ([5]; vs Sp-8-Cl-cAMPS): 3 fold
- hydrolysis by phosphodiesterase [6]: resistant to hydrolysis
- viability at 50 µM ([7]; read-out: cell viability): 90%
- fold induction at 50 µM ([7]; read-out: increase of HLA-DR over control): 2
- fold induction at 50 µM ([7]; read-out: increase of Leu-15 over control): 3
- inhibition at 10 µM ([8]; Homo sapiens, LS174T): 48%
- inhibition at 50 µM ([8]; Homo sapiens, LS174T): 70%
- growth inhibitory potency ([8]; LS-174T): greatest inhibition of cell growth
- inhibition at 5 µM ([9]; Homo sapiens, LS174T, 96 h, 5 μM, 4 days): 34%
- inhibition at 10 µM ([9]; Homo sapiens, LS174T, 96 h, 10 μM, 4 days): 48%
- inhibition at 200 µM ([9]; Homo sapiens, LS174T, 96 h, 200 μM, 4 days): 80%
- effect on growth-inhibitory effect of 8-Cl-cAMP ([9]; with 8-Cl-cAMP): additive effect
- affinity for cAMP receptor protein / protein kinase [10]: reduced affinity for the cAMP receptor protein
- relative affinity Ki (cAMP)/Ki (analogue), RI Site A ([11]; Site A (Site 2)): 0.0079
- relative affinity Ki (cAMP)/Ki (analogue), RI Site B ([11]; Site B (Site 1)): 0.0042
- decrease in affinity for Site A of RI vs corresponding cyclophosphate ([11]; vs cyclophosphate): 340 fold
- decrease in affinity for Site B of RI vs corresponding cyclophosphate ([11]; vs cyclophosphate): 480 fold
